Publication PMC9610943, “Truncated Pleurocidin Derivative with High Pepsin Hydrolysis Resistance to Combat Multidrug-Resistant Pathogens” (Pharmaceutics, 2022)
Read-outs that look alike come from different tables or passages of the source. Where no end group is shown, it is not given here.

Columns and labels:
[1] = tested on: MRSA T144; experiment: microbe, parasite or virus in culture; type: cell-based, Staphylococcus aureus
Experimental: (§1) S. aureus ATCC 29213, E. coli ATCC 25922, S. enteritidis ATCC 13076 and A. baumannii ATCC 19609 were obtained from the American Type Culture Collection (ATCC). The remaining strains used in the experiment were all preserved strains in our laboratory. All strains were cultured in nutrient broth overnight to the logarithmic phase at 37 °C prior to each experiment.
(§2) The MICs of all drugs were determined by micro-broth dilution method according to CLSI 2018 guidelines. Briefly, a single colony of the bacterial strain was transferred to 1 mL of Mueller Hilton broth (MHB) and overnight at 37 °C and then 10 μL were cultured in a new 1 mL medium for 4 to 6 h, and then the bacterial culture at the logarithmic phase was diluted to 1 × 10^6 CFUs/mL. The assay was performed by adding 100 μL of each peptide solution at various concentrations (0.25 to 128 μg/mL) and 100 μL of diluted bacterial culture to different wells of a 96-well microtiter plate (Corning, NY, USA). After incubation at 37 °C for 16 to 18 h and then read its MIC value. MIC value is defined as the lowest drug concentration without visible bacteria.

[2] = tested on: MRSA 1530; experiment: microbe, parasite or virus in culture; type: cell-based, Staphylococcus aureus
Experimental: as §1, §2

[3] = tested on: S. aureus ATCC 29213; experiment: microbe, parasite or virus in culture; type: cell-based
Experimental: as §1, §2

[4] = tested on: E. coli B2 (blaNDM-5 + mcr-1); experiment: microbe, parasite or virus in culture; type: cell-based
Experimental: as §1, §2

[5] = tested on: P. aeruginosa (VIM + tmexCD1-torJ1); experiment: microbe, parasite or virus in culture; type: cell-based
Experimental: as §1, §2

[6] = tested on: E. coli 1F28 (tet(X4)); experiment: microbe, parasite or virus in culture; type: cell-based
Experimental: as §1, §2

[7] = tested on: E. coli CP131 (mcr-3); experiment: microbe, parasite or virus in culture; type: cell-based
Experimental: as §1, §2

[8] = tested on: S. enteritidis ATCC 13076; experiment: microbe, parasite or virus in culture; type: cell-based
Experimental: as §1, §2

[9] = tested on: E. faecalis A4 (VRE, VanA); experiment: microbe, parasite or virus in culture; type: cell-based
Experimental: as §1, §2

[10] = tested on: A. baumannii ATCC 19609; experiment: microbe, parasite or virus in culture; type: cell-based
Experimental: as §1, §2

[11] = tested on: E. coli ATCC 25922; experiment: microbe, parasite or virus in culture; type: cell-based
Experimental: as §1, §2

[12] = tested on: E. coli B3-1 (tet(X4)); experiment: microbe, parasite or virus in culture; type: cell-based
Experimental: as §1, §2

[13] = tested on: S. aureus G16 (RIF^R); experiment: microbe, parasite or virus in culture; type: cell-based; conditions: S. aureus G16 (RIF^R); micro-broth dilution CLSI 2018, MHB, 37 °C, 16 to 18 h
Experimental: as §1, §2

[14] = tested on: E. coli G6 (blaNDM-5); experiment: microbe, parasite or virus in culture; type: cell-based
Experimental: as §1, §2

[15] = tested on: E. coli C3 (blaNDM-1); experiment: microbe, parasite or virus in culture; type: cell-based
Experimental: as §1, §2

[16] = tested on: E. coli G92 (mcr-1); experiment: microbe, parasite or virus in culture; type: cell-based
Experimental: as §1, §2

[17] = tested on: P. aeruginosa PA14; experiment: microbe, parasite or virus in culture; type: cell-based
Experimental: as §1, §2

[18] = tested on: S. aureus 215 (cfr + LZD^R); experiment: microbe, parasite or virus in culture; type: cell-based; conditions: S. aureus 215 (cfr + LZD^R); micro-broth dilution CLSI 2018, MHB, 37 °C, 16 to 18 h
Experimental: as §1, §2

[19] = tested on: P. cibarius HNCF44W (blaNDM-1+ tet(X6)); experiment: organism not typed; type: cell-based
Experimental: as §1, §2

[20] = tested on: MRSA T144; type: cell-based, Staphylococcus aureus
Experimental: as §2
(§3) Then, the antibacterial activity of the peptides affected by different temperatures and pH were determined according to the determination steps of MICs test.
(§4) In MHB medium, Na^+, K^+, Mg^2+ and Ca^2+ with the final concentrations of 10 mM, fetal bovine serum, plasma or DMEM medium (Hyclone, Logan, UT, USA) with the final concentrations of 10% was added, and then MIC values were measured to evaluate the effects of different cations, serum and plasma on the antibacterial activity of peptides.
(§5) The peptide was incubated with protease (pepsin, trypsin and papain) (Solarbio, Beijing, China) with a final concentration of 1 mg/mL at 37 °C for 1 h, then the mixture of peptide and protease was heated at 100 °C for 30 min, then centrifuged at 13,000× g for 30 min, and the supernatant was taken for MIC determination.

[21] = tested on: E. coli B2; type: cell-based
Experimental: as §2, §3, §4, §5

GWGSFFKKAAHVGK [GK-1]
MIC ([1]; MRSA T144, micro-broth dilution CLSI 2018, MHB, 37 °C, 16 to 18 h): >128 µg/mL
MIC ([2]; MRSA 1530, micro-broth dilution CLSI 2018, MHB, 37 °C, 16 to 18 h): >128 µg/mL
MIC ([3]; S. aureus ATCC 29213, micro-broth dilution CLSI 2018, MHB, 37 °C, 16 to 18 h): >128 µg/mL
MIC ([4]; E. coli B2 (blaNDM-5 + mcr-1), micro-broth dilution CLSI 2018, MHB, 37 °C, 16 to 18 h): >128 µg/mL
MIC ([5]; P. aeruginosa (VIM + tmexCD1-torJ1), micro-broth dilution CLSI 2018, MHB, 37 °C, 16 to 18 h): >128 µg/mL
MIC ([6]; E. coli 1F28 (tet(X4)), micro-broth dilution CLSI 2018, MHB, 37 °C, 16 to 18 h): >128 µg/mL
MIC ([7]; E. coli CP131 (mcr-3), micro-broth dilution CLSI 2018, MHB, 37 °C, 16 to 18 h): >128 µg/mL
MIC ([8]; S. enteritidis ATCC 13076, micro-broth dilution CLSI 2018, MHB, 37 °C, 16 to 18 h): >128 µg/mL
MIC ([9]; E. faecalis A4 (VRE, VanA), micro-broth dilution CLSI 2018, MHB, 37 °C, 16 to 18 h): >128 µg/mL
MIC ([10]; A. baumannii ATCC 19609, micro-broth dilution CLSI 2018, MHB, 37 °C, 16 to 18 h): >128 µg/mL
MIC ([11]; E. coli ATCC 25922, micro-broth dilution CLSI 2018, MHB, 37 °C, 16 to 18 h): >128 µg/mL
MIC ([12]; E. coli B3-1 (tet(X4)), micro-broth dilution CLSI 2018, MHB, 37 °C, 16 to 18 h): >128 µg/mL
MIC [13]: >128 µg/mL
MIC ([14]; E. coli G6 (blaNDM-5), micro-broth dilution CLSI 2018, MHB, 37 °C, 16 to 18 h): >128 µg/mL
MIC ([15]; E. coli C3 (blaNDM-1), micro-broth dilution CLSI 2018, MHB, 37 °C, 16 to 18 h): >128 µg/mL
MIC ([16]; E. coli G92 (mcr-1), micro-broth dilution CLSI 2018, MHB, 37 °C, 16 to 18 h): >128 µg/mL
MIC ([17]; P. aeruginosa PA14, micro-broth dilution CLSI 2018, MHB, 37 °C, 16 to 18 h): >128 µg/mL
MIC [18]: >128 µg/mL
MIC ([19]; P. cibarius HNCF44W (blaNDM-1+ tet(X6)), micro-broth dilution CLSI 2018, MHB, 37 °C, 16 to 18 h): >128 µg/mL

GWGSFFKKAAHVGKHVGKAALTHYL [Pleu, Pleurocidin]
MIC after treatment at 121 °C ([20]; T144): 8 µg/mL
MIC in DMEM (10%) ([20]; T144): 2 µg/mL
MIC in Plasma (10%) ([20]; T144): 2 µg/mL
MIC in Serum (10%) ([20]; T144): 4 µg/mL
MIC in presence of Ca^2+ ([20]; T144): >128 µg/mL
MIC in presence of K^+ ([20]; T144): 2 µg/mL
MIC in presence of Mg^2+ ([20]; T144): 8 µg/mL
MIC in presence of Na^+ ([20]; T144): 2 µg/mL
MIC, Control ([20]; T144): 2 µg/mL
MIC after Papain treatment ([20]; T144, 1 h): >128 µg/mL
MIC after Pepsin treatment ([20]; T144, 1 h): 64 µg/mL
MIC after Trypsin treatment ([20]; T144, 1 h): >128 µg/mL
MIC after treatment at 40 °C ([20]; T144, 1 h): 2 µg/mL
MIC after treatment at 60 °C ([20]; T144, 1 h): 1 µg/mL
MIC after treatment at 80 °C ([20]; T144, 1 h): 2 µg/mL
MIC after treatment at 100 °C ([20]; T144, 1 h): 4 µg/mL
MIC after treatment at pH 2 ([20]; T144, 1 h, pH 2): 4 µg/mL
MIC after treatment at pH 4 ([20]; T144, 1 h, pH 4): 4 µg/mL
MIC after treatment at pH 6 ([20]; T144, 1 h, pH 6): 2 µg/mL
MIC after treatment at pH 8 ([20]; T144, 1 h, pH 8): 4 µg/mL
MIC after treatment at pH 10 ([20]; T144, 1 h, pH 10): 4 µg/mL
MIC after treatment at pH 12 ([20]; T144, 1 h, pH 12): 4 µg/mL
MIC after treatment at 121 °C ([21]; B2): 2 µg/mL
MIC in DMEM (10%) ([21]; B2): 4 µg/mL
MIC in Plasma (10%) ([21]; B2): <0.25 µg/mL
MIC in Serum (10%) ([21]; B2): 1 µg/mL
MIC in presence of Ca^2+ ([21]; B2): >128 µg/mL
MIC in presence of K^+ ([21]; B2): 1 µg/mL
MIC in presence of Mg^2+ ([21]; B2): 128 µg/mL
MIC in presence of Na^+ ([21]; B2): 1 µg/mL
MIC, Control ([21]; B2): 2 µg/mL
MIC after Papain treatment ([21]; B2, 1 h): >128 µg/mL
MIC after Pepsin treatment ([21]; B2, 1 h): 128 µg/mL
MIC after Trypsin treatment ([21]; B2, 1 h): >128 µg/mL
MIC after treatment at 40 °C ([21]; B2, 1 h): 1 µg/mL
MIC after treatment at 60 °C ([21]; B2, 1 h): 1 µg/mL
MIC after treatment at 80 °C ([21]; B2, 1 h): 1 µg/mL
MIC after treatment at 100 °C ([21]; B2, 1 h): 2 µg/mL
MIC after treatment at pH 2 ([21]; B2, 1 h, pH 2): 1 µg/mL
MIC after treatment at pH 4 ([21]; B2, 1 h, pH 4): 1 µg/mL
MIC after treatment at pH 6 ([21]; B2, 1 h, pH 6): 1 µg/mL
MIC after treatment at pH 8 ([21]; B2, 1 h, pH 8): 1 µg/mL
MIC after treatment at pH 10 ([21]; B2, 1 h, pH 10): 1 µg/mL
MIC after treatment at pH 12 ([21]; B2, 1 h, pH 12): 1 µg/mL
MIC ([1]; T144): 2 µg/mL
MIC [2]; 1530: 8 µg/mL
MIC ([3]; ATCC 29213): 4 µg/mL
MIC ([4]; B2 (blaNDM-5 + mcr-1)): 2 µg/mL
MIC ([5]; VIM + tmexCD1-torJ1): 4 µg/mL
MIC ([6]; 1F28 (tet(X4))): 4 µg/mL
MIC ([7]; CP131 (mcr-3)): 1 µg/mL
MIC ([8]; ATCC 13076): 1 µg/mL
MIC ([9]; A4 (VRE, VanA)): 8 µg/mL
MIC ([10]; ATCC 19609): 2 µg/mL
MIC ([11]; ATCC 25922): 1 µg/mL
MIC ([12]; B3-1 (tet(X4))): 1 µg/mL
MIC [13]: 2 µg/mL
MIC ([14]; G6 (blaNDM-5)): 1 µg/mL
MIC ([15]; C3 (blaNDM-1)): 1 µg/mL
MIC ([16]; G92 (mcr-1)): 1 µg/mL
MIC ([17]; PA14): 1 µg/mL
MIC [18]: 2 µg/mL
MIC [19]: 2 µg/mL
